Experimental data reported in paper PMC4553520, “Laboratory and Simulated Field Bioassays to Evaluate Larvicidal Activity of Pinus densiflora Hydrodistillate, Its Constituents and Structurally Related Compounds against Aedes albopictus, Aedes aegypti and Culex pipiens pallens in Relation to Their Inhibitory Effects on Acetylcholinesterase Activity” (Insects, 2013).

Assays:
[1] = test system: early third-instar larvae of Ae. aegypti; experiment: Direct-contact mortality bioassay, Ae. aegypti larvae; conditions: early third-instar larvae, 24 h exposure, direct contact
Experimental: (§1) Direct-contact mortality bioassays were employed to evaluate the toxicity of all compounds, using early third-instar larvae of each mosquito species. Each compound was dissolved in methanol, and then further diluted in distilled water containing Triton X-100 (20 µL/L). Groups of 20 mosquito larvae of each species were put into separate paper cups (270 mL), each containing different compound solutions (250 mL). The toxicity of each compound was determined by repeating this experimental procedure with different concentrations, ranging from 5 to 200 mg/L. Temephos and fenthion served as standard references and were similarly formulated as well. Controls contained only methanol-Triton X-100 carrier solution in distilled water.
(§2) Both treated and control larvae were kept under the same conditions as those used for colony maintenance. […] Due to certain constraints arising from the number of available larvae, all necessary bioassays could not be conducted simultaneously and thus, treatments were conducted over a period of time, with a separate control treatment included each time. Freshly prepared compound solutions were used for each round of bioassays. All bioassays were repeated three times.
(§3) Concentration-mortality data were subjected to probit analysis using SAS [20]. […] Furthermore, for the compounds tested in AChE inhibition assays, a correlation analysis between their LC50 values and IC50 values was conducted using SAS [20].

[2] = test system: early third-instar larvae of Cx. p. pallens; experiment: Direct-contact mortality bioassay, laboratory-reared Cx. p. pallens larvae; conditions: laboratory-reared early third-instar larvae, 24 h exposure, direct contact
Experimental: as §1, §2, §3

[3] = target: acetylcholinesterase (AChE) extracted from the heads of larval Ae. aegypti (Aedes aegypti, UniProt Q6A2E2); experiment: AChE inhibition assay, Ae. aegypti; type: biochemical; conditions: in vitro
Experimental: (§4) For each species, larvae frozen at −20 °C were decapitated and 100 heads were homogenized in 5 mL of ice-cold 0.1 M sodium phosphate buffer (pH 8.0), using a Teflon glass tissue homogenizer. The homogenate was centrifuged at 10,000 × g at 4 °C for 20 min. The supernatant was filtered by a 0.22 µm-Millex-GV filter (Millipore, Cork, Ireland) and was used as the AChE preparation. Protein concentrations were determined by the Bradford dye method using BSA as the standard. A microplate AChE assay was carried out following the method of Moores et al. adapted from Ellman et al.. The reaction mixture consisted of 80 µL of the crude enzyme preparation, 10 µL of 7.5 mM DTNB in phosphate buffer (pH 7.0) and 100 µL of the selected test compounds of various concentrations in 2.5% acetone. The reaction mixture was incubated at 30 °C for 5 min and 10 µL of 6.25 mM ATChI was then added to the mixture. The absorbance was recorded at 414 nm, using a Molecular Devices VersaMax microplate reader (Sunnyvale, CA, USA). All AChE inhibition assays were repeated three times in triplicates.
as §3

[4] = target: acetylcholinesterase (AChE) extracted from the heads of larval Cx. p. pallens (Culex pipiens pallens, UniProt Q86GC8); experiment: AChE inhibition assay, Cx. p. pallens; type: biochemical; conditions: in vitro
Experimental: as §4, §3

[5] = target: acetylcholinesterase (AChE) extracted from the heads of larval Ae. albopictus (Aedes albopictus, UniProt Q2PGF2); experiment: AChE inhibition assay, Ae. albopictus; type: biochemical; conditions: in vitro
Experimental: as §4, §3

[6] = test system: early third-instar larvae of Ae. albopictus; experiment: Direct-contact mortality bioassay, Ae. albopictus larvae; conditions: early third-instar larvae, 24 h exposure, direct contact
Experimental: as §1, §2, §3

acetylcholinesterase (AChE) extracted from the heads of larval Ae. aegypti, sequence (Q6A2E2 37-679): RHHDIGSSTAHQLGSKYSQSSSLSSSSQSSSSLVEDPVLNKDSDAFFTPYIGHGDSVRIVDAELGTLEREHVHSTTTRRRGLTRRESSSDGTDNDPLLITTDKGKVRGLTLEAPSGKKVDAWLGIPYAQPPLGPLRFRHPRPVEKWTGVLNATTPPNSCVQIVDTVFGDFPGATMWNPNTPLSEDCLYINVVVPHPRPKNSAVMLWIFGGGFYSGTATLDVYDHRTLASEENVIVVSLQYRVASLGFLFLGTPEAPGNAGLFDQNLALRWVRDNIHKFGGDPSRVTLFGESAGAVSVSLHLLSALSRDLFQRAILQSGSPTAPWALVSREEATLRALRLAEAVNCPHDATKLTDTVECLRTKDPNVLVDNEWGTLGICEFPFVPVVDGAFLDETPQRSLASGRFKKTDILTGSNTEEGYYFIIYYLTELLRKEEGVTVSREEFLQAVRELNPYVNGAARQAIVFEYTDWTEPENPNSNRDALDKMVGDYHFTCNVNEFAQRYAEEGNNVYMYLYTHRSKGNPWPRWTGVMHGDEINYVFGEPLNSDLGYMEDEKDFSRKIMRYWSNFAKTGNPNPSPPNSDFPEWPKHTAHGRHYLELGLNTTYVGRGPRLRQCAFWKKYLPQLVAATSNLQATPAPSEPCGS
acetylcholinesterase (AChE) extracted from the heads of larval Ae. albopictus, sequence (Q2PGF2 37-680): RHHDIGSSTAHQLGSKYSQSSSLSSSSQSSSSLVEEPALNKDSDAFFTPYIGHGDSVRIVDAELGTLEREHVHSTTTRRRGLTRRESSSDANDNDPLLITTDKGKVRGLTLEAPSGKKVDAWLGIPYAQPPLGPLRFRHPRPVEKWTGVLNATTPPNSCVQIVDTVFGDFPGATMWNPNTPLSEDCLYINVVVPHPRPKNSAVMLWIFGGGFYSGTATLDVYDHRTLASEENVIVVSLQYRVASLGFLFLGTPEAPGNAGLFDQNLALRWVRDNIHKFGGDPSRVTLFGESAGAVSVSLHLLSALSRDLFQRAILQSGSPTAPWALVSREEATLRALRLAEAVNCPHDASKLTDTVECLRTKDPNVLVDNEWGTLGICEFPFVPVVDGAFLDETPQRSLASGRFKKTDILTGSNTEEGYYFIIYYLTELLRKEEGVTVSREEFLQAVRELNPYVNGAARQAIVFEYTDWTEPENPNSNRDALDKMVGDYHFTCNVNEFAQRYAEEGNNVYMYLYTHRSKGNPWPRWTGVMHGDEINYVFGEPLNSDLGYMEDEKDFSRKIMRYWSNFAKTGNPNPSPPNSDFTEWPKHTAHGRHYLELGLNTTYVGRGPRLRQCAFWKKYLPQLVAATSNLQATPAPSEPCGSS
acetylcholinesterase (AChE) extracted from the heads of larval Cx. p. pallens, sequence (Q86GC8 37-702): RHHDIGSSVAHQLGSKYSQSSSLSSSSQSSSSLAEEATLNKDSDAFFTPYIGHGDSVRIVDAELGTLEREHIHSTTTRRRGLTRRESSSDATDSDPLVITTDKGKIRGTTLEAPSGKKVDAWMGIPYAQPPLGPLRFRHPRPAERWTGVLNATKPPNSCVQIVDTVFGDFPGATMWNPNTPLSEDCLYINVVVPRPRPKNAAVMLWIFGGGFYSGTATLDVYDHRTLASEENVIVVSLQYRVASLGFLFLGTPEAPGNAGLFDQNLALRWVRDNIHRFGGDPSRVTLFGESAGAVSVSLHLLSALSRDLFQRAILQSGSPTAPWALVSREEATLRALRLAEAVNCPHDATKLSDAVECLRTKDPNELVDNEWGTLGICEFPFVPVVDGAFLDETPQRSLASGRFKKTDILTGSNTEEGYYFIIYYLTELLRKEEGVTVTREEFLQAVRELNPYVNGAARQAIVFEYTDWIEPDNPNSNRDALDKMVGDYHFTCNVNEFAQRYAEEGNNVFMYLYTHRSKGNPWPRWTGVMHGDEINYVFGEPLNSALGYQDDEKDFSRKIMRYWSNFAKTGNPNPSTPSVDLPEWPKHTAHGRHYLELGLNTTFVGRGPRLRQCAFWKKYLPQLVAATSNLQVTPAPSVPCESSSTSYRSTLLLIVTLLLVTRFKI

Compound | LC50 (Ae. aegypti), mg/L (95% CL) [1] [mg/L] | LC50 (Cx p. pallens), mg/L (95% CL) [2] | IC50 [3] [mM] | IC50 [4] [mM] | IC50 [5] [mM] | LC50 (Ae. albopictus), mg/L (95% CL) [6]
C/C1=C\CC/C(C)=C/CC(C)(C)/C=C/C1 [α-humulene] | >150 | >150 mg/L | 58.1 | 62.3 | 47.6 | >150 mg/L
(−)-myrtenal | >150 | 139.61 (122.92–169.77) mg/L | 34 | 31.6 | 23.7 | 137.86 (119.15–173.91) mg/L
